# Data taken from patent publication US20260256792A1, “TREATMENT OF CHRONIC SPONTANEOUS URTICARIA BY ADMINISTERING (R)-2-[3-[4-AMINO-3-(2-FLUORO-4-PHENOXY-PHENYL)PYRAZOLO[3,4-D]PYRIMIDIN-1-YL]PIPERIDINE-1-CARBONYL]-4-METHYL-4-[4-(OXETAN-3-YL)PIPERAZIN-1-YL]PENT-2-ENENITRILE” (priority 2023, published 2026).
# System: moderate-to-severe chronic spontaneous urticaria (CSU)
# Assay: Phase 2 CSU study: itch severity score over 7 days (ISS7)
# Assay type: in vivo, human
# Conditions: for Change from Baseline in ISS7 at Week 12, Mean / Change from Baseline in ISS7 at Week 12, LS Mean / Change from Baseline in ISS7 at Week 12, LS Mean Diff vs. placebo: Omalizumab-naïve population; for ISS7 change from baseline at Week 12, LS Mean / ISS7 change from baseline at Week 12, LS Mean Diff vs. placebo: ANCOVA
# Description: The study comprises a 12 week, randomized, double-blind, placebo-controlled, multi-center, dose-ranging efficacy and safety phase, followed by a 40 week open label extension (OLE) phase (see FIG. 1). The study consists of three phases and an optional OLE phase. […] Clinically, CSU is characterized by the spontaneous and recurrent appearance of pruritic hives. The proposed primary endpoints were the UAS7 at Week 12 in EU and EU reference countries and the ISS7 in the US. Regardless of where a participant was from, all assessments were the same. The UAS7 score is a composite score containing both the HSS7 and the ISS7. This allowed a global assessment of the two key components of urticaria: hives and itch. […] The UAS is a validated PRO measure. […] The daily UAS scores range from 0 to 6 point/day. […] Patients were to complete the UAS using the e-diary. […] The following secondary endpoints were to be analyzed using the same approach as for the primary endpoint: • Change from baseline in UAS7 at Week 4 • Change from baseline in UAS7 at Week 12 (for US and US reference countries) • Change from baseline in ISS7 at Week 12 (except US and US reference countries) • Change from baseline in HSS7 at Week 12
# [1] = 400 mg TID, Baseline ISS7 score <13
# [2] = 400 mg TID, Baseline ISS7 score ≥13
# [3] = 400 mg TID, Baseline Total IgE (IU/mL) <100
# [4] = 400 mg TID, Baseline Total IgE (IU/mL) <300
# [5] = 400 mg TID, Baseline Total IgE (IU/mL) ≥100
# [6] = 400 mg TID, Baseline Total IgE (IU/mL) ≥300
# [7] = 400 mg TID, Baseline UAS7 score <28
# [8] = 400 mg TID, Baseline UAS7 score ≥28
# [9] = 400 mg TID, Duration of disease (years) 2-10
# [10] = 400 mg TID, Duration of disease (years) <2
# [11] = 400 mg TID, Duration of disease (years) >10
# [12] = 400 mg TID, Ethnicity Non-Hispanic
# [13] = 400 mg TID, History of angioedema No
# [14] = 400 mg TID, History of angioedema Yes
# [15] = 400 mg TID, Race All the Others
# [16] = 400 mg TID, Region Eastern Europe
# [17] = 400 mg TID, Region Latin America
# [18] = 400 mg TID, Region Western Countries
# [19] = 400 mg TID, omalizumab-naïve population
# [20] = 400 mg TID, omalizumab-naïve population with outlier removed
# [21] = End of Study, 400 mg BID, Omalizumab-Naïve
smiles,measurement,setting,value
"CC(C)(C=C(C#N)C(=O)N1CCC[C@@H](n2nc(-c3ccc(Oc4ccccc4)cc3F)c3c(N)ncnc32)C1)N1CCN(C2COC2)CC1 [rilzabrutinib, (R)-2-[3-[4-amino-3-(2-fluoro-4-phenoxy-phenyl)pyrazolo[3,4-d]pyrimidin-1-yl]piperidine-1-carbonyl]-4-methyl-4-[4-(oxetan-3-yl)piperazin-1-yl]pent-2-enenitrile]","Change from Baseline in ISS7 at Week 12, Mean","400 mg TID, Baseline H1-antihistamines dose 2 to 4-fold standard dose",−12.76
same,"Change from Baseline in ISS7 at Week 12, LS Mean",[1],−3.73
same,"Change from Baseline in ISS7 at Week 12, LS Mean Diff vs. placebo",[1],−1.01
same,"Change from Baseline in ISS7 at Week 12, Mean",[1],−3.50
same,"Change from Baseline in ISS7 at Week 12, LS Mean",[2],−10.18
same,"Change from Baseline in ISS7 at Week 12, LS Mean Diff vs. placebo",[2],−4.45
same,"Change from Baseline in ISS7 at Week 12, Mean",[2],−10.79
same,"Change from Baseline in ISS7 at Week 12, LS Mean",[3],−9.19
same,"Change from Baseline in ISS7 at Week 12, LS Mean Diff vs. placebo",[3],−4.95
same,"Change from Baseline in ISS7 at Week 12, Mean",[3],−11.17
same,"Change from Baseline in ISS7 at Week 12, LS Mean",[4],−9.55
same,"Change from Baseline in ISS7 at Week 12, LS Mean Diff vs. placebo",[4],5.04
same,"Change from Baseline in ISS7 at Week 12, LS Mean",[5],−9.13
same,"Change from Baseline in ISS7 at Week 12, LS Mean Diff vs. placebo",[5],−3.10
same,"Change from Baseline in ISS7 at Week 12, Mean",[5],−9.49
same,"Change from Baseline in ISS7 at Week 12, LS Mean",[6],−8.12
same,"Change from Baseline in ISS7 at Week 12, LS Mean Diff vs. placebo",[6],−1.58
same,"Change from Baseline in ISS7 at Week 12, Mean",[6],8.74
same,"Change from Baseline in ISS7 at Week 12, LS Mean",[7],−6.43
same,"Change from Baseline in ISS7 at Week 12, LS Mean Diff vs. placebo",[7],−3.26
same,"Change from Baseline in ISS7 at Week 12, Mean",[7],−7.61
same,"Change from Baseline in ISS7 at Week 12, LS Mean",[8],−10.62
same,"Change from Baseline in ISS7 at Week 12, LS Mean Diff vs. placebo",[8],−4.02
same,"Change from Baseline in ISS7 at Week 12, Mean",[8],−11.99
same,"Change from Baseline in ISS7 at Week 12, LS Mean",[9],−8.84
same,"Change from Baseline in ISS7 at Week 12, LS Mean Diff vs. placebo",[9],−1.82
same,"Change from Baseline in ISS7 at Week 12, Mean",[9],−9.37
same,"Change from Baseline in ISS7 at Week 12, LS Mean",[10],−9.77
same,"Change from Baseline in ISS7 at Week 12, LS Mean Diff vs. placebo",[10],−6.12
same,"Change from Baseline in ISS7 at Week 12, Mean",[10],−10.93
same,"Change from Baseline in ISS7 at Week 12, LS Mean",[11],−9.33
same,"Change from Baseline in ISS7 at Week 12, LS Mean Diff vs. placebo",[11],−5.64
same,"Change from Baseline in ISS7 at Week 12, Mean",[11],−11.00
same,"Change from Baseline in ISS7 at Week 12, LS Mean","400 mg TID, Ethnicity Hispanic",7.36
same,"Change from Baseline in ISS7 at Week 12, LS Mean Diff vs. placebo","400 mg TID, Ethnicity Hispanic",−0.35
same,"Change from Baseline in ISS7 at Week 12, Mean","400 mg TID, Ethnicity Hispanic",−8.13
same,"Change from Baseline in ISS7 at Week 12, LS Mean",[12],−10.16
same,"Change from Baseline in ISS7 at Week 12, LS Mean Diff vs. placebo",[12],−5.69
same,"Change from Baseline in ISS7 at Week 12, Mean",[12],−11.83
same,"Change from Baseline in ISS7 at Week 12, Mean","400 mg TID, Gender Male",−7.08
same,"Change from Baseline in ISS7 at Week 12, LS Mean",[13],−9.56
same,"Change from Baseline in ISS7 at Week 12, LS Mean Diff vs. placebo",[13],−4.22
same,"Change from Baseline in ISS7 at Week 12, Mean",[13],−10.86
same,"Change from Baseline in ISS7 at Week 12, LS Mean",[14],−8.24
same,"Change from Baseline in ISS7 at Week 12, LS Mean Diff vs. placebo",[14],−2.99
same,"Change from Baseline in ISS7 at Week 12, Mean",[14],−9.01
same,"ISS7 at Week 12, Mean","400 mg TID, ITT population",5.59
same,"ISS7 at Week 12, Median","400 mg TID, ITT population",6.00
same,"ISS7 change from baseline at Week 12, Mean","400 mg TID, ITT population",−10.68
same,"ISS7 change from baseline at Week 12, Median","400 mg TID, ITT population",−10.67
same,LS mean change from baseline in ISS7 at Week 12,"400 mg TID, ITT population",−9.58 points
same,"ISS7 change from baseline at Week 12, LS Mean","400 mg TID, ITT population",−9.58 points
same,"ISS7 change from baseline at Week 12, LS Mean Diff vs. placebo","400 mg TID, ITT population",−3.26
same,decrease from baseline in ISS7,"400 mg TID, ITT population, belongs to LS mean change −6.65",40.41%
same,LS mean change in ISS7 from baseline (see Table 29),"400 mg TID, ITT population, following one week of treatment",−6.65 points
same,"Change from Baseline in ISS7 at Week 12, LS Mean",[15],−8.74
same,"Change from Baseline in ISS7 at Week 12, LS Mean Diff vs. placebo",[15],−5.27
same,"Change from Baseline in ISS7 at Week 12, Mean",[15],−8.74
same,"Change from Baseline in ISS7 at Week 12, LS Mean","400 mg TID, Race White",−9.18
same,"Change from Baseline in ISS7 at Week 12, LS Mean Diff vs. placebo","400 mg TID, Race White",−3.17
same,"Change from Baseline in ISS7 at Week 12, Mean","400 mg TID, Race White",−10.88
same,"Change from Baseline in ISS7 at Week 12, LS Mean","400 mg TID, Region Asia",−8.33
same,"Change from Baseline in ISS7 at Week 12, LS Mean Diff vs. placebo","400 mg TID, Region Asia",−4.87
same,"Change from Baseline in ISS7 at Week 12, Mean","400 mg TID, Region Asia",−8.21
same,"Change from Baseline in ISS7 at Week 12, LS Mean",[16],−14.02
same,"Change from Baseline in ISS7 at Week 12, LS Mean Diff vs. placebo",[16],−1.35
same,"Change from Baseline in ISS7 at Week 12, Mean",[16],−13.17
same,"Change from Baseline in ISS7 at Week 12, LS Mean",[17],−6.07
same,"Change from Baseline in ISS7 at Week 12, LS Mean Diff vs. placebo",[17],0.52
same,"Change from Baseline in ISS7 at Week 12, Mean",[17],−7.34
same,"Change from Baseline in ISS7 at Week 12, LS Mean",[18],9.58
same,"Change from Baseline in ISS7 at Week 12, LS Mean Diff vs. placebo",[18],−5.03
same,"Change from Baseline in ISS7 at Week 12, Mean",[18],−11.79
same,"ISS7 at Week 12, Mean",[19],5.77
same,"ISS7 at Week 12, Median",[19],7.00
same,"ISS7 change from baseline at Week 12, Mean",[19],−10.27
same,"ISS7 change from baseline at Week 12, Median",[19],−10.33
same,LS mean change from baseline in ISS7 at Week 12,[19],−9.21
same,LS mean reduction in ISS7 (see Table 30),[19],−6.13
same,"ISS7 at Week 12, Mean",[20],5.77
same,"ISS7 at Week 12, Median",[20],7.00
same,"ISS7 change from baseline at Week 12, Mean",[20],−10.27
same,"ISS7 change from baseline at Week 12, Median",[20],−10.33
same,"ISS7 change from baseline at Week 12, LS Mean",[20],−9.57 points
same,"ISS7 change from baseline at Week 12, LS Mean Diff vs. placebo",[20],−3.86
same,LS mean change from baseline in ISS7 at Week 12,"400 mg TID, omalizumab-naïve population, outlier removed",−9.57
same,"ISS7 change from baseline at Week 12, LS Mean",[19],−9.21 points
same,"ISS7 change from baseline at Week 12, LS Mean Diff vs. placebo",[19],−3.44
same,ISS7 Mean (SD),[21],7.80 (8.76)
same,ISS7 Median,[21],7.00
same,ISS7 Mean (SD),"End of Study, 400 mg QPM, Omalizumab-Naïve",5.74 (8.03)
